# Where two headings read alike, the source gives them in different places. Residues, ends and D or L forms follow the SMILES beside them.
# How the values were obtained:
# [1] = target: T1, PIG-tailed EPO-R immobilized on mAb179 (Homo sapiens, UniProt P19235); assay: PIG-tailed EPO-R radioligand competition binding assay; conditions: streptavidin 4:1 experiment; free peptide concentrations
# T1 construct: comprised the extracellular domain of the EPO-receptor; thrombin cleavage site (internal); made in house
# T1 sequence (P19235 25-250 limits assumed): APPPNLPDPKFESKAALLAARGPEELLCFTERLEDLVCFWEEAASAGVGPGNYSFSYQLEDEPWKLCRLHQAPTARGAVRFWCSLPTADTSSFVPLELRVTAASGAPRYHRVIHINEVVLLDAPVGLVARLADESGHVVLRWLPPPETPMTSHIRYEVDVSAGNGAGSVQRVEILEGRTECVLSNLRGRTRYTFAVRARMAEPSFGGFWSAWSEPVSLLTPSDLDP
# Method: Affinity was determined using a radioligand competition binding assay against PIG-tailed EPOR immobilized on mAB179.
# The recombinant receptor protein was immobilized using the following methodology. Microtiter plates were coated within an anti-receptor antibody and the wells which were to contain the immobilized receptor were treated with bovine serum albumin (BSA) to block non-specific binding. The PIG-tailed receptor having a thrombin cleavage site was added to the coated wells of the microtiter plate, which were then washed to remove unbound receptor.
# IC50 s were calculated for several of the peptides falling within the general motifs described above.
# This peptide was incubated with streptavidin in PBS at a 4:1 molar ratio at room temperature for one hour.
# The affinity of the dimer was tested against the PIG-tailed EPOR immobilized on mAbl179 in strip wells.
# [2] = target: T2, truncated human erythropoietin receptor cell line (Homo sapiens, UniProt P19235); assay: cell-based
# T2 sequence (P19235 25-468 limits assumed): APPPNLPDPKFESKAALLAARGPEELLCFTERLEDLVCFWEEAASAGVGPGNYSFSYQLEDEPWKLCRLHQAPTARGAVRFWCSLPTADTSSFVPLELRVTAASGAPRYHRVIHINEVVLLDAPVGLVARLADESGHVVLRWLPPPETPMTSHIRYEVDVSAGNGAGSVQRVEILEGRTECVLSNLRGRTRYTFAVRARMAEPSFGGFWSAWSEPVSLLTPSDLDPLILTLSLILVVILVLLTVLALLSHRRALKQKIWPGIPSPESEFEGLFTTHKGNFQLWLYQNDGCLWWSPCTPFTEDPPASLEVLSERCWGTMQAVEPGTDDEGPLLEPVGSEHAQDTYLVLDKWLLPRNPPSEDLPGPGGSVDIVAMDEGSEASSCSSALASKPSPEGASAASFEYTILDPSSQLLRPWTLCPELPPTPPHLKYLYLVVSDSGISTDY
# Method: Cells are harvested and resuspended in fresh medium without growth factor (erytiropoietin) for 24 hr. Cells are counted and resuspended at a concentration of 800,000 cells/ml. Approximately forty thousand cells (50μ) are added to each well of a 96 well microtiter plate. Peptide is added to each well in triplicate. A standard dose response determination is run with each series of peptides. After a forty-two hr incubation (≈2 doubling), each well is pulsed with 1 μCi/well Thymidine. Cells are incubated an additional six hr at which time cells are harvested and counted to assess thymidine incorporation as an indicator of cell proliferation.
# [3] = target: T3, murine receptor (FDC-P1/ER cells) (Mus musculus, UniProt P14753); assay: cell-based; conditions: IA = inactive
# T3 sequence (P14753 25-507): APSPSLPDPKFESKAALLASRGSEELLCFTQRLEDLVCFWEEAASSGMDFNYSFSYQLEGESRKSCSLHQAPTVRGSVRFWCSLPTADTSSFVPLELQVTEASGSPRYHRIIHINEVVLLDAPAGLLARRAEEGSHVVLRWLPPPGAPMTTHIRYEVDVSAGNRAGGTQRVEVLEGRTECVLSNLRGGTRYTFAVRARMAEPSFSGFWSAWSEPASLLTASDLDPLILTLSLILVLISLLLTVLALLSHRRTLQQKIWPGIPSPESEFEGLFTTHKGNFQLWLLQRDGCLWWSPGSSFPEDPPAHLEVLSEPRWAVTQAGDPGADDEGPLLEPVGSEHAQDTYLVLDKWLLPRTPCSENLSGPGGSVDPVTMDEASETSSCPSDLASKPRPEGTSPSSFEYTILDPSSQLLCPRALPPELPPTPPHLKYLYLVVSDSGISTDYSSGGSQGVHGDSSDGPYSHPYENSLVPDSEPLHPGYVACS
# [4] = target: T4, FDCP-1/hEPO-R cells (human EPO-R) (Homo sapiens, UniProt P19235); assay: cell-based
# T4 sequence (P19235 25-508): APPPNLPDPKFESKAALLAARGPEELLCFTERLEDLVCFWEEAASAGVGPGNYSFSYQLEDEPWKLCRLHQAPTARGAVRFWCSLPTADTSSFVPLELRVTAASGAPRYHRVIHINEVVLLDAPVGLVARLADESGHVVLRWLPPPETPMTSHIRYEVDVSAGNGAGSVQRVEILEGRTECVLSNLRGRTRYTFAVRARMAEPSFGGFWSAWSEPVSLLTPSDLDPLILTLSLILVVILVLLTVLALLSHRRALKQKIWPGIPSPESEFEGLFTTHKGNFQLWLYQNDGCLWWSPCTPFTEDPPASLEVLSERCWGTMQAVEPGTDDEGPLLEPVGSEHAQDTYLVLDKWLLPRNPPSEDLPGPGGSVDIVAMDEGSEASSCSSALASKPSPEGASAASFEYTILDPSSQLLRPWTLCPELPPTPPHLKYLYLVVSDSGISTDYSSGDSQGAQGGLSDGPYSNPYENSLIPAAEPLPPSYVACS
# Method: One assay utilized FDCP-1, a growth factor depenent murne multi-potential primitive hematopoietic progenitor cell line (see, e.g., Dexter et al. (1980) J. Exp. Med. 152:1036-1047), as the parental cell line. This cell line can proliferate, but not differentiate, when supplemented with WEHI3-conditioned media (a medium that contains IL-3, ATCC number T1B68).
# In brief, the cells are grown to half stationary density in the presence of the necessary growth factors. The cells are then washed in PBS and starved for 16-24 hours in whole media without the growth factors. After determining the viability of the cells, stock solutions (in whole media without the growth factors) are made to give about 10^5 cells per 50 microliters. […] Cells (50 microliters) are added to each well and the cells are incubated 24-48 hours, at which point the negative controls should die or be quiescent. Cell proliferation is then measured by techniques known in the art, such as an MTT assay which correlates with ^3 H-thymidine incorporation as an indication of cell proliferation (see, Mosmann (1983) J. Immnunol. Methods 65:55).
# In addition, this peptide was preincubated with streptavidin in serum-free HEPES-buffered RPMI at a 4:1 molar ratio, as above. The complex was tested for stimulation of cell proliferation in an FDCP-1/hEPO-R bioassay alongside. free […] […]
# [5] = target: T5, extracellular domain of the human erythropoietin receptor (EPO binding protein, EBP) (Homo sapiens, UniProt P19235); assay: Immobilized EBP based [125I]EPO competition binding assay; conditions: IC50 relative to RWJ61233 (IC50 5 μM); cyclic peptides, COOH terminal amides
# T5 construct: made in house
# T5 sequence (P19235 25-250 limits assumed): T1 sequence (P19235 25-250 limits assumed)
# Method: The iodoacetyl activation chemistry of Sufolink beads (Pierce Chemical Co, Rockford, Ill.) is specific for free thiols and assures that the linkage is not easily reversible. EBP-Sulfolink beads were made as follows: SulfoLink gel suspension (10 ml) was mixed with coupling buffer (40 ml: 50 mM Tris, pH 8.3, 5 mM EDTA) and the gel was allowed to settle. The supernatant was removed and the EBP (0.3-1 mg/ml in coupling buffer) to be bound was added directly to the washed beads. The mixture was rocked gently for 30 minutes at room temperature, and the beads were allowed to settle for 1 hour at room temperature. […] The amount of EBP which was covalently bound to the beads was determined by comparing the OD280 of the original EBP solution to the total OD280 recovered in the reaction supernatant and the two 20 ml washes.
# Binding assays were initiated by the addition of EBP beads (50 μl) to individual reaction tubes. […] The tubes were incubated for five hours (a time period experimentally determined as adequate for the establishment of equilibrium) at room temperature with gentle rocking. […]
# Competitive binding analysis assays of candidate peptides were performed as outlined below. […] The columns containing the washed beads were placed in 12×75 mm glass tubes and bound radioactivity levels were determined using a gamma counter.
# [6] = EPO-ED50 (μM), Tables 17-19, amount for half maximal level of EPO dependent proliferation
Molecule,EC50 [2] [nM],"EC50 [3, 6] [µM]",Relative Binding [5],also measured
"CC(C)C[C@@H]1NC(=O)[C@@H]2CCCN2C(=O)CNC(=O)[C@H](Cc2ccccc2)NC(=O)[C@H](Cc2c[nH]cn2)NC(=O)[C@@H](NC(=O)[C@H](CO)NC(=O)[C@H](Cc2ccc(O)cc2)NC(=O)[C@@H](NC(=O)CNC(=O)CN)[C@@H](C)O)CSSC[C@@H](C(=O)N[C@@H](CCCCN)C(=O)N2CCC[C@H]2C(=O)N[C@@H](CCC(N)=O)C(=O)NCC(=O)NCC(=O)N[C@@H](CO)C(=O)N[C@@H](CO)C(=O)N[C@@H](CCCCNC(=O)CCCCCNC(=O)CCCC[C@@H]2SC[C@@H]3NC(=O)N[C@@H]32)C(N)=O)NC(=O)[C@H](C(C)C)NC(=O)[C@H](Cc2c[nH]c3ccccc23)NC(=O)[C@H]([C@@H](C)O)NC1=O (HELM PEPTIDE1{G.G.T.Y.S.C.H.F.G.P.L.T.W.V.C.K.P.Q.G.G.S.S.K.[am]}|PEPTIDE2{[O=C1N[C@H]2[C@H](CS[C@H]2CCCCC(=O)[*:2])N1].[O=C(CCCCCN[*:1])[*:2]]}$PEPTIDE1,PEPTIDE2,23:R3-2:R2|PEPTIDE1,PEPTIDE1,6:R3-15:R3$$$V2.0; N-terminus and C-terminus assumed)",–,–,–,IC50 [1]: 350 nM
"CC(C)C[C@@H]1NC(=O)[C@@H]2CCCN2C(=O)CNC(=O)[C@H](Cc2ccccc2)NC(=O)[C@H](Cc2c[nH]cn2)NC(=O)[C@@H](NC(=O)[C@H](CO)NC(=O)[C@H](Cc2ccc(O)cc2)NC(=O)[C@@H](NC(=O)CNC(=O)CN)[C@@H](C)O)CSSC[C@@H](C(=O)N[C@@H](CCCCN)C(=O)N2CCC[C@H]2C(=O)N[C@@H](CCC(N)=O)C(=O)NCC(=O)NCC(N)=O)NC(=O)[C@H](C(C)C)NC(=O)[C@H](Cc2c[nH]c3ccccc23)NC(=O)[C@H]([C@@H](C)O)NC1=O [RWJ 61233] (HELM PEPTIDE1{G.G.T.Y.S.C.H.F.G.P.L.T.W.V.C.K.P.Q.G.G.[am]}$PEPTIDE1,PEPTIDE1,6:R3-15:R3$$$V2.0)",100,0.1,–,"EC50 [4]: 400 nM; EC50 ([4]; EPO-ED50, FIG. 10): ~1000 nM"
"CC(C)C[C@@H]1NC(=O)[C@@H]2CCCN2C(=O)CNC(=O)[C@H](Cc2ccccc2)NC(=O)[C@H](Cc2c[nH]cn2)NC(=O)[C@@H](NC(=O)[C@H](CO)NC(=O)[C@H](Cc2ccc(O)cc2)NC(=O)[C@@H](NC(=O)CNC(=O)CN)[C@@H](C)O)CSSC[C@@H](C(=O)N[C@@H](CCCCN)C(=O)N2CCC[C@H]2C(=O)N[C@@H](CCC(N)=O)C(=O)NCC(=O)NCC(N)=O)NC(=O)[C@H](C(C)C)NC(=O)[C@H](Cc2ccccc2)NC(=O)[C@H]([C@@H](C)O)NC1=O [RWJ 62145] (HELM PEPTIDE1{G.G.T.Y.S.C.H.F.G.P.L.T.F.V.C.K.P.Q.G.G.[am]}$PEPTIDE1,PEPTIDE1,6:R3-15:R3$$$V2.0)",500,0.25,–,–
"CC(=O)NCC(=O)NCC(=O)N[C@H](C(=O)N[C@@H](Cc1ccc(O)cc1)C(=O)N[C@@H](CO)C(=O)N[C@H]1CSSC[C@@H](C(=O)N[C@@H](CCCCN)C(=O)N2CCC[C@H]2C(=O)N[C@@H](CCC(N)=O)C(=O)NCC(=O)NCC(N)=O)NC(=O)[C@H](C(C)C)NC(=O)[C@H](Cc2c[nH]c3ccccc23)NC(=O)[C@H]([C@@H](C)O)NC(=O)[C@H](CC(C)C)NC(=O)[C@@H]2CCCN2C(=O)CNC(=O)[C@H](Cc2ccccc2)NC(=O)[C@H](Cc2c[nH]cn2)NC1=O)[C@@H](C)O [RWJ 62146] (HELM PEPTIDE1{[ac].G.G.T.Y.S.C.H.F.G.P.L.T.W.V.C.K.P.Q.G.G.[am]}$PEPTIDE1,PEPTIDE1,7:R3-16:R3$$$V2.0)",60,–,4,"EC50 ([3]; EPO-ED50 (μM)* murine receptor, Tables 20-21): 0.03 µM"
RWJ 61721 (GGTYSEHFGPLTWVKKPQGG),–,–,> 100,–
